Data on one molecule can be found in patent US9173422B2, “Compositions including pyruvate for companion animals and methods of use thereof” (Hill's Pet Nutrition, Inc., priority 2009, dated 2015).

This test can be described thus: Canine pyruvate study blood chemistry. It is filed as in vivo. Particulars: dogs fed pyruvate compared to similar foods containing fish oil. The source says: 40 dogs were fed a control food for 28 days prior to start of the study. At day 0, dogs were allotted to one of three experimental foods, control+fish oil, control+pyruvate, or control+fish oil and pyruvate. Dogs were fed the experimental foods for 45 days. [table]

`CC(=O)C(=O)O` [pyruvate, calcium pyruvate]: the blood urea nitrogen result is listed as “reduced” and the creatinine result is recorded as “reduced”.
